Reference: ChEMBL document CHEMBL1136307, “Novel chromene derivatives as TNF-alpha inhibitors” (Bioorg Med Chem Lett, 2003)

Assay: Inhibitory activity against TNF-alpha production in human peripheral blood mononuclear cells(PBMC) using an ELISA assay
Format: functional

Question: Which IC50 does the source give for `COc1ccc2c(c1)OC(c1cc(OC)c(OC)c(OC)c1)C(C(C)=O)=C2` (centres undefined) here?
Answer: 0.1 µM

Question: For `COc1ccc2c(c1)OC(c1cc(OC)c(OC)c(OC)c1)C(C=O)=C2` (centres undefined), which IC50 is on record?
Answer: 0.6 µM

Question: For `COc1ccc2c(c1)OC(c1cc(OC)c(OC)c(OC)c1)C(C(=O)NC(C)(C)C)=C2` (centres undefined), which IC50 is on record?
Answer: > 50 µM

Question: With `CCCC(=O)C1=Cc2ccc(OC)cc2OC1c1cc(OC)c(OC)c(OC)c1` (centres undefined) as the compound, how does the IC50 read?
Answer: 4.7 µM

Question: For `COc1ccc2c(c1)OC(c1cc(OC)c(OC)c(OC)c1)C(C(=O)OC(C)C)=C2` (centres undefined), which IC50 is on record?
Answer: 12 µM

Question: With `COc1ccc2c(c1)OC(c1cc(OC)c(OC)c(OC)c1)C(C#N)=C2` (centres undefined) as the compound, how does the IC50 read?
Answer: 0.6 µM

Question: With `COc1ccc2c(c1)OC(c1cc(OC)c(OC)c(OC)c1)C(/C=N/O)=C2` (centres undefined) as the compound, how does the IC50 read?
Answer: 4.1 µM

Question: With `COc1ccc2c(c1)OC(c1cc(OC)c(OC)c(OC)c1)C(C(=O)OC(C)(C)C)=C2` (centres undefined) as the compound, how does the IC50 read?
Answer: 13 µM

Question: Which IC50 does the source give for `CNC(=O)C1=Cc2ccc(OC)cc2OC1c1cc(OC)c(OC)c(OC)c1` (centres undefined) here?
Answer: 8.1 µM

Question: For `COc1ccc2c(c1)OC(c1cc(OC)c(OC)c(OC)c1)C(C(N)=O)=C2` (centres undefined), which IC50 is on record?
Answer: 0.6 µM

Question: For `CCCCNC(=O)C1=Cc2ccc(OC)cc2OC1c1cc(OC)c(OC)c(OC)c1` (centres undefined), which IC50 is on record?
Answer: 31.3 µM

Question: With `COc1ccc2c(c1)OC(c1cc(OC)c(OC)c(OC)c1)C(C(=O)Nc1ccccc1)=C2` (centres undefined) as the compound, how does the IC50 read?
Answer: > 50 µM

Question: Which IC50 does the source give for `CCOC(=O)C1=Cc2ccc(OC)cc2OC1c1cc(OC)c(OC)c(OC)c1` (centres undefined) here?
Answer: 7 µM

Question: With `CCNC(=O)C1=Cc2ccc(OC)cc2OC1c1cc(OC)c(OC)c(OC)c1` (centres undefined) as the compound, how does the IC50 read?
Answer: 17.9 µM

Question: Which IC50 does the source give for `COc1ccc2c(c1)OC(c1cc(OC)c(OC)c(OC)c1)C(C(=O)O)=C2` (centres undefined) here?
Answer: > 50 µM

Question: For `COc1ccc2c(c1)OC(c1cc(OC)c(OC)c(OC)c1)C(C(=O)OCCc1ccccc1)=C2` (centres undefined), which IC50 is on record?
Answer: > 50 µM

Question: For `COc1ccc2c(c1)OC(c1cc(OC)c(OC)c(OC)c1)C(CO)=C2` (centres undefined), which IC50 is on record?
Answer: 2.4 µM

Question: For `COc1ccc2c(c1)OC(c1cc(OC)c(OC)c(OC)c1)C=C2` (centres undefined), which IC50 is on record?
Answer: 11.6 µM

Question: Which IC50 does the source give for `COc1ccc2c(c1)OC(c1cc(OC)c(OC)c(OC)c1)C(C(=O)NC(C)C)=C2` (centres undefined) here?
Answer: 41.6 µM

Question: Which IC50 does the source give for `COc1ccc2c(c1)OC(c1cc(OC)c(OC)c(OC)c1)C(C(=O)N1CCCCC1)=C2` (centres undefined) here?
Answer: 48 µM

Question: For `COc1ccc2c(c1)OC(c1cc(OC)c(OC)c(OC)c1)C(C(=O)N(C)C)=C2` (centres undefined), which IC50 is on record?
Answer: > 50 µM

Question: For `COC(=O)C1=Cc2ccc(OC)cc2OC1c1cc(OC)c(OC)c(OC)c1` (centres undefined), which IC50 is on record?
Answer: 2 µM

Question: For `CCOCC1=Cc2ccc(OC)cc2OC1c1cc(OC)c(OC)c(OC)c1` (centres undefined), which IC50 is on record?
Answer: 1.1 µM

Question: Which IC50 does the source give for `COc1ccc2c(c1)OC(c1cc(OC)c(OC)c(OC)c1)C(C(=O)N(C)OC)=C2` (centres undefined) here?
Answer: 31.1 µM
